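Grown in 96-well plates, cells were treated for 48 hours with each compound at five concentrations. Insufficient inhibition: endpoint recorded as highest concentration tested. Abbreviation: GI50, concentration required for 50% inhibition of growth. TGI marks complete inhibition of growth.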
The molecules below were run on LOX IMVI melanoma (assay: NCI-60 cell line screen, 48 h).
In the case of COC(=O)/C=C/C1C(C(=O)OC)C2(C(=O)OC)CCC1(C(=O)OC)N2 (stereo not given), the TGI is reported as over 100 µM.
N#CC(/C(=N/NC(=O)C(=O)NN)C(=O)NC12CC3CC(CC(C3)C1)C2)c1ccccc1 (stereo not given) showed a TGI of over 100 µM.
Work on CC(=O)OCC1OC([S-])C(OC(C)=O)C(OC(C)=O)C1OC(C)=O.CC[PH+](CC)CC.CC[PH+](CC)CC.[Au].[Au] (stereo not given) yielded a GI50 of 0.142 µM and a TGI of 0.317 µM.
Cc1cc(C)n(CCNCCn2nc(C)cc2C)n1 was tested, and the TGI was over 100 µM.
Work on COc1cc2c(cc1OCc1ccccc1)CNCC2 yielded a TGI of over 100 µM.
Molecule CCOC(=O)N1CCN(C(=O)c2ccc(C(F)(F)F)nc2Nc2cc(Cl)ccc2C)CC1 has a GI50 of 19.7 µM and a TGI of over 100 µM.
For O=C(CN1CCCCC1)N1CCc2c([nH]c3ccccc23)C1c1cccnc1 (stereo not given), the TGI was over 100 µM.
For O=C(O)c1cc(O)c2c(c1)C(C1c3cc(C(=O)O)cc(O)c3C(=O)c3c(OC4OC(CO)C(O)C(O)C4O)cccc31)c1cccc(OC3OC(CO)C(O)C(O)C3O)c1C2=O (stereo not given), the GI50 was over 100 µM and the TGI was over 100 µM.
For COc1ccc(CNc2c3ccccc3nc3ccccc23)cc1OC, the GI50 was 1.4 µM and the TGI was 3.47 µM.
For CCCCCCCCCc1cc(=O)c2c(O)cccc2o1, the TGI was 72.3 µM.
For COc1cc2cn3c4ccc(O)cc4[nH]c(=O)c3c2cc1OC, the GI50 was 0.0131 µM and the TGI was 1.44 µM.
For COc1ccc(/C=c2/sc3n(c2=O)C(c2ccc(OC)c(OC)c2)C2=C(N=3)c3cc(F)ccc3OC2)cc1 (stereo not given), the GI50 was 23 µM and the TGI was 50.7 µM.
With Cc1n(Cc2ccc3ccccc3c2)cc[n+]1Cc1ccc2ccccc2c1 the GI50 was 0.951 µM and the TGI was 2.2 µM.
O=S(O)CCCCSSCc1ccccc1CSSCCCCS(=O)O was tested, and the TGI was 28.7 µM.
Work on CC(C)(C)N1CC2(CCCCC2)C1=O yielded a TGI of over 100 µM.
Work on O=C(CCC(=O)Nc1cccc(Cl)c1)CC(=O)c1ccc(Cl)cc1 yielded a TGI of over 100 µM.
Work on Cc1cc(NC(=O)c2ccc(C)c(Nc3nccc(-c4cccnc4)n3)c2)cc(-n2cnc(C)c2)c1 yielded a GI50 of 4.09 µM and a TGI of 13 µM.
With Cc1[nH]n(-c2cccc(Cl)c2)c(=O)c1/C=C1\C=Nc2ccc(Br)cc21 the GI50 was 5.48 µM and the TGI was 38 µM.
With CC(=O)c1c(CBr)n([O-])c2ccccc2[n+]1=O the GI50 was 10.8 µM and the TGI was 23 µM.
In the case of CCCS(=O)(=O)Nc1ccc(Nc2c3ccccc3nc3ccccc23)c(OC)c1, the TGI is reported as 4.9 µM.
CCN(CC)CC(C)(C)C(=O)/C=C/c1ccc(Cl)c(Cl)c1 gave a GI50 of 0.774 µM and a TGI of 2.03 µM.
With NC1CCCC[C@H]1N.N[C@@H]1CCCC[C@@H]1N.O=C(P(=O)([O-])[O-])P(=O)([O-])[O-].[Pt+4].[Pt+4] the GI50 was over 100 µM and the TGI was over 100 µM.
For Cc1ccc(Nc2nc(N)c(C(=O)c3ccc(C#N)cc3)s2)cc1, the GI50 was 0.522 µM and the TGI was over 100 µM.
CN1CCc2c(Sc3ccc(C(=O)NO)cc3)c3ccccc3n2C1 was tested, and the GI50 was 1.64 µM and the TGI was 3.57 µM.
Molecule CC(=O)O[C@@H]1C[C@]2(C(C)C)O[C@@]1(C)[C@@H]1CCC(C)=C1[C@@H]2OC(=O)/C=C/c1ccccc1 has a GI50 of 29.4 µM and a TGI of over 100 µM.
O=C(CSc1nnc(-c2ccccc2NC(=O)C(F)(F)F)c(=O)[nH]1)NC(=O)Nc1ccccc1 showed a TGI of over 100 µM.
Work on CCN1C(=O)N(CC)C2C1NC(=S)N2/N=C/C=C/c1cccs1 (stereo not given) yielded a GI50 of 0.55 µM and a TGI of over 100 µM.
In the case of COc1ccc(C(=O)C(CO)Oc2ccccc2OC)cc1OC (stereo not given), the TGI is reported as over 100 µM.

The molecules below were run on LXFL 529 NSCLC (assay: NCI-60 cell line screen, 48 h).
Work on CC(C)(C)C(=O)/C=C/c1ccc(Oc2ccccc2)cc1 yielded a TGI of 28.9 µM.
In the case of CC1=C(C(=O)Nc2c(C)cccc2C)C(c2ccccc2Cl)C(C(=O)Nc2c(C)cccc2C)=C(C)N1, the TGI is reported as over 100 µM.
For O=C1CSC(Cc2nc3ccccc3[nH]2)=N1, the TGI was over 53.8 µM.
In the case of COc1ccccc1NC(=O)C1=C(C)NC(C)=C(C(=O)Nc2ccccc2OC)C1c1ccc([N+](=O)[O-])cc1, the TGI is reported as over 100 µM.
Molecule CCOC(=O)[C@H](CCCNC(=O)OC(C)(C)C)NCc1ccc(OC)c(OC)c1 has a TGI of over 100 µM.
With O=[N+]([O-])c1ccc(-n2nnc(C3=NCCCN3)c2-c2ccc(Cl)cc2)cc1 the TGI was over 100 µM.
Molecule COC(=O)C12C3C4C5(C(=O)OC)C(C1C35C(=O)N(C(C)C)C(C)C)C42C(=O)N(C(C)C)C(C)C (stereo not given) has a TGI of over 50 µM.
N#CC(C#N)=c1[nH]c2cccc3c2-c2c(cccc2c3=C(C#N)C#N)[nH]1 showed a TGI of over 100 µM.
With COC(=O)/C=C/C1C(C(=O)OC)C2(C(=O)OC)CCC1(C(=O)OC)N2 (stereo not given) the TGI was over 100 µM.
N#CC(/C(=N/NC(=O)C(=O)NN)C(=O)NC12CC3CC(CC(C3)C1)C2)c1ccccc1 (stereo not given) gave a TGI of over 100 µM.
CC(=O)OCC1OC([S-])C(OC(C)=O)C(OC(C)=O)C1OC(C)=O.CC[PH+](CC)CC.CC[PH+](CC)CC.[Au].[Au] (stereo not given) showed a GI50 of 0.153 µM and a TGI of 0.322 µM.
Molecule Cc1cc(C)n(CCNCCn2nc(C)cc2C)n1 has a TGI of over 100 µM.
For COc1cc2c(cc1OCc1ccccc1)CNCC2, the TGI was over 100 µM.
O=C(CN1CCCCC1)N1CCc2c([nH]c3ccccc23)C1c1cccnc1 (stereo not given) was tested, and the TGI was over 100 µM.
CCCCCCCCCc1cc(=O)c2c(O)cccc2o1 gave a TGI of over 100 µM.
O=S(O)CCCCSSCc1ccccc1CSSCCCCS(=O)O was tested, and the TGI was 24.8 µM.
For O=C(CCC(=O)Nc1cccc(Cl)c1)CC(=O)c1ccc(Cl)cc1, the TGI was over 100 µM.
NC1CCCC[C@H]1N.N[C@@H]1CCCC[C@@H]1N.O=C(P(=O)([O-])[O-])P(=O)([O-])[O-].[Pt+4].[Pt+4] showed a GI50 of over 100 µM and a TGI of over 100 µM.
O=C(CSc1nnc(-c2ccccc2NC(=O)C(F)(F)F)c(=O)[nH]1)NC(=O)Nc1ccccc1 showed a TGI of over 100 µM.
COc1ccc(C(=O)C(CO)Oc2ccccc2OC)cc1OC (stereo not given) gave a TGI of over 100 µM.

These molecules were tested on SK-MEL-28 melanoma (assay: NCI-60 cell line screen, 48 h).
Work on CC(C)(C)C(=O)/C=C/c1ccc(Oc2ccccc2)cc1 yielded a TGI of over 100 µM.
CC1=C(C(=O)Nc2c(C)cccc2C)C(c2ccccc2Cl)C(C(=O)Nc2c(C)cccc2C)=C(C)N1 was tested, and the TGI was over 100 µM.
In the case of O=C1CSC(Cc2nc3ccccc3[nH]2)=N1, the TGI is reported as over 76.1 µM.
For COc1ccccc1NC(=O)C1=C(C)NC(C)=C(C(=O)Nc2ccccc2OC)C1c1ccc([N+](=O)[O-])cc1, the TGI was over 100 µM.
Molecule CCOC(=O)[C@H](CCCNC(=O)OC(C)(C)C)NCc1ccc(OC)c(OC)c1 has a TGI of over 100 µM.
Work on O=C(/C=C/c1c(O)ccc2ccccc12)c1ccc2ccccc2c1 yielded a TGI of over 100 µM.
With O=[N+]([O-])c1ccc(-n2nnc(C3=NCCCN3)c2-c2ccc(Cl)cc2)cc1 the TGI was over 100 µM.
With COC(=O)C12C3C4C5(C(=O)OC)C(C1C35C(=O)N(C(C)C)C(C)C)C42C(=O)N(C(C)C)C(C)C (stereo not given) the TGI was over 50 µM.
For N#CC(/C(=N/NC(=O)C(=O)NN)C(=O)NC12CC3CC(CC(C3)C1)C2)c1ccccc1 (stereo not given), the TGI was over 100 µM.
For CC(=O)OCC1OC([S-])C(OC(C)=O)C(OC(C)=O)C1OC(C)=O.CC[PH+](CC)CC.CC[PH+](CC)CC.[Au].[Au] (stereo not given), the GI50 was 0.167 µM and the TGI was 0.791 µM.
With Cc1cc(C)n(CCNCCn2nc(C)cc2C)n1 the TGI was over 100 µM.
Work on COc1cc2c(cc1OCc1ccccc1)CNCC2 yielded a TGI of over 100 µM.
Molecule CCOC(=O)N1CCN(C(=O)c2ccc(C(F)(F)F)nc2Nc2cc(Cl)ccc2C)CC1 has a GI50 of 26.1 µM and a TGI of 96 µM.
O=C(CN1CCCCC1)N1CCc2c([nH]c3ccccc23)C1c1cccnc1 (stereo not given) showed a TGI of over 100 µM.
O=C(O)c1cc(O)c2c(c1)C(C1c3cc(C(=O)O)cc(O)c3C(=O)c3c(OC4OC(CO)C(O)C(O)C4O)cccc31)c1cccc(OC3OC(CO)C(O)C(O)C3O)c1C2=O (stereo not given) gave a GI50 of over 100 µM and a TGI of over 100 µM.
COc1ccc(CNc2c3ccccc3nc3ccccc23)cc1OC showed a GI50 of 3.14 µM and a TGI of 10.8 µM.
In the case of CCCCCCCCCc1cc(=O)c2c(O)cccc2o1, the TGI is reported as over 100 µM.
Work on COc1cc2cn3c4ccc(O)cc4[nH]c(=O)c3c2cc1OC yielded a GI50 of under 0.01 µM and a TGI of 0.681 µM.
In the case of COc1ccc(/C=c2/sc3n(c2=O)C(c2ccc(OC)c(OC)c2)C2=C(N=3)c3cc(F)ccc3OC2)cc1 (stereo not given), the GI50 is reported as 51.5 µM and the TGI is reported as over 96.6 µM.
Work on Cc1n(Cc2ccc3ccccc3c2)cc[n+]1Cc1ccc2ccccc2c1 yielded a GI50 of 1.02 µM and a TGI of 3.05 µM.
O=S(O)CCCCSSCc1ccccc1CSSCCCCS(=O)O gave a TGI of 31.9 µM.
In the case of CC(C)(C)N1CC2(CCCCC2)C1=O, the TGI is reported as over 100 µM.
For O=C(CCC(=O)Nc1cccc(Cl)c1)CC(=O)c1ccc(Cl)cc1, the TGI was over 100 µM.
Cc1cc(NC(=O)c2ccc(C)c(Nc3nccc(-c4cccnc4)n3)c2)cc(-n2cnc(C)c2)c1 was tested, and the GI50 was 1.71 µM and the TGI was 6.19 µM.
Cc1[nH]n(-c2cccc(Cl)c2)c(=O)c1/C=C1\C=Nc2ccc(Br)cc21 was tested, and the GI50 was 19.6 µM and the TGI was over 100 µM.
Molecule CC(=O)c1c(CBr)n([O-])c2ccccc2[n+]1=O has a GI50 of 13 µM and a TGI of 27.7 µM.
Molecule CCCS(=O)(=O)Nc1ccc(Nc2c3ccccc3nc3ccccc23)c(OC)c1 has a TGI of 1.3 µM.
CCN(CC)CC(C)(C)C(=O)/C=C/c1ccc(Cl)c(Cl)c1 was tested, and the GI50 was 1.57 µM and the TGI was 3.08 µM.
